Molecular target: PD-1/PD-L1 (Homo sapiens (Human), UniProt Q9NZQ7)
Test: PD-1/PD-L1 Homogenous Time-Resolved Fluorescence (HTRF) binding assay
Conditions: PD-1-Ig / PD-L1-His HTRF; value given as range class; read-out: Range or IC50
Description: The ability of the compounds of formula (I) to bind to PD-L1 was investigated using a PD-1/PD-L1 Homogenous Time-Resolved Fluorescence (HTRF) binding assay.
Homogenous Time-Resolved Fluorescence (HTRF) binding assay.
The interaction of PD-1 and PD-L1 can be assessed using soluble, purified preparations of the extracellular domains of the two proteins. The PD-1 and PD-L1 protein extracellular domains were expressed as fusion proteins with detection tags, for PD-1, the tag was the Fc portion of Immunoglobulin (PD-1-Ig) and for PD-L1 it was the 6 histidine motif (PD-L1-His). All binding studies were performed in an HTRF assay buffer consisting of dPBS supplemented with 0.1% […] bovine serum albumin and 0.05% (v/v) Tween-20. For the h/PD-L1-His binding assay, inhibitors were pre-incubated with PD-L1-His (10 nM final) for 15 m in 4 μl of assay buffer, followed by addition of PD-1-Ig (20 nM final) in 1 μl of assay buffer and further incubation for 15 m. HTRF detection was achieved using europium crypate-labeled anti-Ig (1 nM final) and allophycocyanin (APC) labeled anti-His (20 nM final). Antibodies were diluted in HTRF detection buffer and 5 μl was dispensed on top of the binding reaction. The reaction mixture was allowed to equilibrate for 30 minutes and the resulting signal (665 nm/620 nm ratio) was obtained using an EnVision fluorometer. Additional binding assays were established between the human proteins PD-1-Ig/PD-L2-His (20 & 5 nM, respectively) and CD8O-His/PD-L1-Ig (100 & 10 nM, respectively).
Recombinant Proteins: Human PD-1 (25-167) with a C-terminal human Fc domain of immunoglobulin G (Ig) epitope tag [hPD-1 (25-167)-3S-IG] and human PD-L1 (18-239) with a C-terminal His epitope tag [hPD-L1(18-239)-TVMV-His] were expressed in HEK293T cells and purified sequentially by ProteinA affinity chromatography and size exclusion chromatography. Human PD-L2-His and CD80-His was obtained through commercial sources.
The table below lists the IC50 values for representative examples of this disclosure measured in the PD-1/PD-L1 Homogenous Time-Resolved Fluorescence (HTRF) binding assay. Ranges are as follows: A=0.18 nM-0.99 nM; B=1.0 nM-5.0 nM; C=5.01 nM-10.1 nM; D=10.2 nM-200 nM; E=201 nM→10 uM

Chain of PD-1/PD-L1 (Q9NZQ7 other isoform, or with tags, fused parts or gaps): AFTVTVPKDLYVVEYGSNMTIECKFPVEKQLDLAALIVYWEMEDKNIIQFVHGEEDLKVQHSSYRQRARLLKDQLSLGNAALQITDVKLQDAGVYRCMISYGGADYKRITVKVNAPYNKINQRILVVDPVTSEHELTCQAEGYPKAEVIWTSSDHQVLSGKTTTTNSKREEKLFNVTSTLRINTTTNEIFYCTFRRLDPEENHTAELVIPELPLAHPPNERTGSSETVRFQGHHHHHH

IC50: 1 to 5 nM
SMILES: CCC[C@@H](C(=O)O)N(C)Cc1cc(Cl)c(OCc2cccc(-c3ccc4oc(N5CCN(C)CC5)nc4c3)c2C)cc1OCc1cncc(C#N)c1 [Example 2018, (S)-2-((5-chloro-2-((5-cyanopyridin-3-yl)methoxy)-4-((2-methyl-3-(2-(4-methylpiperazin-1-yl)benzo[d]oxazol-5-yl)benzyl)oxy)benzyl)(methyl)amino)pentanoic Acid]

Source: patent US10882844B2, “Compounds useful as immunomodulators” (Bristol-Myers Squibb Company, priority 2016, dated 2021)
